Measured values taken from patent publication EP4471049A1 (Zealand Pharma A/S, priority 2023, dated 2024).
*1 amine or outer side, *2 acyl side, *3 side chain or, on linkers, in order; H or OH if unused. Where a SMILES comes first, the peptide text is derived from it. Bridges are numbered along the chain shown (N, C = ends). Where no end group is shown, it is not given here. [ ]: non-standard residue; d: D form. The star is where a group is joined. 4‑Aminomethyl‑phenylacetyl = 4-aminomethyl-phenylacetyl unit, its amine closes the lactam, O=C(Cc1ccc(CN[*:1])cc1)[*:2]; dGly‑CF3 = O=C([C@H](N[*:1])C(F)(F)F)[*:2]; 2Nal = N[C@@H](Cc1ccc2ccccc2c1)C(=O)O; AEF = NCCOc1ccc(C[C@H](N)C(=O)O)cc1; X1 = O=C(Cc1ccc(CN[*:1])cc1)[*:2]; 3Pal = N[C@@H](Cc1cccnc1)C(=O)O; αMeL = CC(C)C[C@](C)(N)C(=O)O; Pyrrolidide = C1CCN(*)C1; Dab = NCC[C@H](N)C(=O)O

T1: human IL-23R (Homo sapiens, UniProt Q5VWK5)
T1 sequence (Q5VWK5 22-629): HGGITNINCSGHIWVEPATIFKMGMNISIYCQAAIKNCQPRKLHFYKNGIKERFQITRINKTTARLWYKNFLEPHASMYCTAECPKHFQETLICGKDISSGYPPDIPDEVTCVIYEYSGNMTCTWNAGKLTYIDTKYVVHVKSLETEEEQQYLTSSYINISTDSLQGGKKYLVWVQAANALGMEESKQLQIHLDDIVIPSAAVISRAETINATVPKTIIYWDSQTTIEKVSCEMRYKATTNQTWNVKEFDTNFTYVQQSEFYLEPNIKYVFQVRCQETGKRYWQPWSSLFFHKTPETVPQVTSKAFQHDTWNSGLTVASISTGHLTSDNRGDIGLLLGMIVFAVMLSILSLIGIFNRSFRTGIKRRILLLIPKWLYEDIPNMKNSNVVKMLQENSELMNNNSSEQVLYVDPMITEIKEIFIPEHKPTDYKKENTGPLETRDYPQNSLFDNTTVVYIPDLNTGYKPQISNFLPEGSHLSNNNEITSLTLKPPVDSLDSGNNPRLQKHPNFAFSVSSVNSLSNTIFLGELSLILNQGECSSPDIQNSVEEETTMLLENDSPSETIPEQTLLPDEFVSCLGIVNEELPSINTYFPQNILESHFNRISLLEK

T2: human IL-23R endogenously expressed on DB cells (human, UniProt Q5VWK5 24-629)
T2 sequence (looked up): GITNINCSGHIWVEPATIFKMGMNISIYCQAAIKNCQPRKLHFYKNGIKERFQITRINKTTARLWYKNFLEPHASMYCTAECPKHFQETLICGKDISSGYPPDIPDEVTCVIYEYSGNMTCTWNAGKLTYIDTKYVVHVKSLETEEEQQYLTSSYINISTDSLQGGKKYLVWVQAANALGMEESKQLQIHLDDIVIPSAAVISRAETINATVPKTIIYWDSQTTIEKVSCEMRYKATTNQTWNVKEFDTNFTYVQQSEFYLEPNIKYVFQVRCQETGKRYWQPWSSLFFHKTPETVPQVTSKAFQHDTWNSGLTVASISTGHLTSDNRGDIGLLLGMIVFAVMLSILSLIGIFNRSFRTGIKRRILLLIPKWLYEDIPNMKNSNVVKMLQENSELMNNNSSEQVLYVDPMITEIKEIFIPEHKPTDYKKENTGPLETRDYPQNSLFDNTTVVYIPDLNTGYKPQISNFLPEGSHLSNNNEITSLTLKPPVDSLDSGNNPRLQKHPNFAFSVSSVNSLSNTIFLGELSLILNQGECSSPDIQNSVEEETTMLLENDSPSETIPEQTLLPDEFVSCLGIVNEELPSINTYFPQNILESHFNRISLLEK


What was measured:
human IL-23R = target: T1, human IL-23R; experiment: biochemical; details: for Emax: read-out: % displacement (hIL-23R binding)
From the text: The compound binding affinity for IL-23R was estimated by the ability of compounds to displace a fluorophore-labelled reference compound from the human IL-23R. The assay principle relies on Bioluminescence Resonance Energy Transfer (BRET) between a fluorophore-labelled reference compound binding to the IL-23R part of a fusion protein consisting of the IL-23R fused to a Nanoluc luciferase enzyme (Nanoluc). The Nanoluc is placed in the N-terminus in close proximity to the binding domain of the ligand. Upon close proximity between the fluorophore of the fluorophore-labelled compound and the Nanoluc of the fusion protein, bioluminescence energy generated from conversion of a Nanoluc substrate, is transferred to the fluorophore resulting in an increase in BRET. In presence of an unlabelled compound, the unlabelled compound displaces the fluorophore-labelled peptide from its binding site resulting in a decrease in BRET. The concentration for which half of the fluorophore-labelled peptide is displaced by the unlabelled compound depends on the affinity of the compound for the IL-23R, and is termed the IC50 concentration.
The plasmid also contained a gene to confer resistance for the antibiotic hygromycin. A cell line stably expressing the Nluc-IL23R fusion protein was generated by transfection of HEK293 cells with the expression plasmid and selected with hygromycin for 3 weeks in Growth medium consisting of DMEM w/ Glutamax-I containing, 10% V/V FBS, 1% V/V P/S, 1 mM Sodium Pyruvate, and 1X NEAA, and 0.3 mg/mL hygromycin. The remaining cells were propagated and considered a stable expressing Nluc-IL23R fusion protein pool clone.
Cells expressing the Nluc-IL23R fusion protein were expanded in Growth medium and membranes prepared by homogenization of a cell pellet from 18 T175 flasks (4 °C in subsequent steps). The cell pellet was lysed Tris 10 mM, 7.5, 1 mM EDTA and protease inhibitors (Complete, Roche) and homogenized using a 15 mL glass-dounce by 50 strokes. The homogenate was spun at spin @1500 rpm for 10 min, the supernatant transferred to SV-34 tubes and spun at 40000g for 20 min at 4 °C to pellet the crude membranes. The supernatant was then removed, the pellet resuspended in 5 mL buffer containing 50 mM HEPES pH 7.4, 5 mM EGTA, and 5 mM MgCl2, and homogenized. Aliquots of the resuspended and homogenized membranes containing the Nluc-IL23R fusion protein were stored at -80 °C until use.
The plate was sealed with light impermeable plate seals, and incubated on an orbital shaker 400 rpm for 2 hours at room temperature. To determine the BRET ratio, the plate seal was removed and 25 µL of the Nanoluc substrate (Promega N1572) diluted 1:500 was added to each well and incubated for 1-2 minutes on an orbital shaker at 400 rpm. […] The BRET ratio was calculated as the fluorescence from the TAMRA/nanoluc bioluminescence.
Compound potency (IC50) and maximal displacement (% displacement) were estimated by computer-aided curve fitting using a 4-parameter logistic (4PL) non-linear model. […]
In this application, the inventors provide the data as IC50 values.

[1] = target: T2, human IL-23R endogenously expressed on …; experiment: cell-based or functional assay

% displacement (hIL-23R binding) (human IL-23R) [%] | IC50 (human IL-23R) [nM] | Emax (human IL-23R) [%] | hIL-23 (pSTAT3) antagonist % inhibition [1] [%] | Molecule | further results
– | 57 | 101 | – | CNC(=O)[C@H](Cc1cccnc1)NC(=O)[C@H](CCN)NC(=O)[C@@H]1CCC(=O)NCc2ccc(cc2)CC(=O)N[C@@H](C)C(=O)N[C@H]2CCC(=O)NCC[C@H](NC(=O)[C@H](CCC(N)=O)NC(=O)[C@H](Cc3c[nH]c4ccccc34)NC2=O)C(=O)N[C@@H](Cc2ccc(OCCN)cc2)C(=O)N[C@@H](Cc2c[nH]c3ccccc23)CC(=O)NC(C)(C)C(=O)N1 [Compound 46, [4-Aminomethyl-phenylacetyl](1c)*AE(2c)WQ[Dab](2c)[Y(2-aminoethoxy)][beta-hTrp][Aib]E(1c)[Dab][3-(3-Pyridyl)-Ala]-[NHMe]] | –
– | – | 103 | – | CNC(=O)[C@H](Cc1cccnc1)NC(=O)[C@H](CCN)NC(=O)[C@@H]1CCC(=O)NCc2ccc(cc2)CC(=O)N[C@@H](C)C(=O)N[C@H]2CCC(=O)NCC[C@H](NC(=O)[C@H](CCC(N)=O)NC(=O)[C@H](Cc3c[nH]c4ccccc34)NC2=O)C(=O)N[C@@H](Cc2c[nH]c3c(F)cccc23)C(=O)N[C@@H](Cc2ccc3ccccc3c2)C(=O)NC(C)(C)C(=O)N1 [Compound 47, [4-Aminomethyl-phenylacetyl](1c)*AE(2c)WQ[Dab](2c)[7-F-Trp][2-Nal][Aib]E(1c)[Dab][3-(3-Pyridyl)-Ala]-[NHMe]] | –
105 | – | – | – | CC(C)C[C@]1(C)NC(=O)[C@H](Cc2ccc3ccccc3c2)NC(=O)[C@H](Cc2ccc(OCCN)cc2)NC(=O)[C@@H]2CCNC(=O)CC[C@H](NC(=O)[C@H](CO)NC(=O)Cc3ccc(cc3)CNC(=O)CC[C@@H](C(=O)N[C@@H](CCN)C(N)=O)NC1=O)C(=O)N[C@@H](Cc1c[nH]c3ccccc13)C(=O)N[C@@H](CCC(=O)N1CCCC1)C(=O)N2 [Ref 146, [4-Aminomethyl-phenylacetyl](1c)*SE(2c)W[Q(pyrrolidin)][Dab](2c)[Y(2-aminoethoxy)][2-Nal][2-Me-Leu]E(1c)[Dab]-[NH2], reference compound] ([X1]SEWE(Pyrrolidide)[Dab][AEF][2Nal][αMeL]E[Dab]-NH2; lactam 3-6, N-10) | –
– | – | – | 98 | [4‑Aminomethyl‑phenylacetyl]SEWQ[Dab][AEF][2Nal][αMeL]E[Dab]-NH2 (lactam (positions not given here); lactam 3-6; not fully specified (bridges); printed as [4-Aminomethyl-phenylacetyl](1c)*SE(2c)WQ[Dab](2c)[Y(2-aminoethoxy)][2-Nal][2-Me-Leu]E(1c)[Dab]-[NH2]) [Ref 125] | hIL-23 (pSTAT3) antagonist IC50 [1]: 21 nM

Further lines, the molecule ahead of its results:

Molecule | % displacement (hIL-23R binding) (human IL-23R) [%] | IC50 (human IL-23R) [nM] | Emax (human IL-23R) [%] | hIL-23 (pSTAT3) antagonist % inhibition [1] [%] | further results
CNC(=O)[C@H](Cc1cccnc1)NC(=O)[C@H](CCN)NC(=O)[C@@H]1CCC(=O)NCc2ccc(cc2)CC(=O)N[C@@H](C)C(=O)N[C@H]2CCC(=O)NCC[C@H](NC(=O)[C@H](CCC(N)=O)NC(=O)[C@H](Cc3c[nH]c4ccccc34)NC2=O)C(=O)N[C@@H](Cc2ccc(OCCN)cc2)C(=O)N[C@@H](CC2CC2)C(=O)NC(C)(C)C(=O)N1 [Compound 42, [4-Aminomethyl-phenylacetyl](1c)*AE(2c)WQ[Dab](2c)[Y(2-aminoethoxy)][Cyclopropyl-Ala][Aib]E(1c)[Dab][3-(3-Pyridyl)-Ala]-[NHMe]] | 100 | – | – | – | –
CNC(=O)[C@H](Cc1cccnc1)NC(=O)[C@H](CCN)NC(=O)[C@@H]1CCC(=O)NCc2ccc(cc2)CC(=O)N[C@@H](C)C(=O)N[C@H]2CCC(=O)NCC[C@H](NC(=O)[C@H](CCC(N)=O)NC(=O)[C@H](Cc3c[nH]c4ccccc34)NC2=O)C(=O)N[C@@H](Cc2ccc(OCCN)cc2)C(=O)N[C@@H](Cc2c[nH]c3ncccc23)C(=O)NC(C)(C)C(=O)N1 [Compound 44, [4-Aminomethyl-phenylacetyl](1c)*AE(2c)WQ[Dab](2c)[Y(2-aminoethoxy)][7-AzaTrp][Aib]E(1c)[Dab][3-(3-Pyridyl)-Ala]-[NHMe]] | – | 0.27 | 100 | – | –
CNC(=O)[C@H](Cc1cccnc1)NC(=O)[C@H](CCN)NC(=O)[C@@H]1CCC(=O)NCc2ccc(cc2)CC(=O)N[C@@H](C)C(=O)N[C@H]2CCC(=O)NCC[C@H](NC(=O)[C@H](CCC(N)=O)NC(=O)[C@H](Cc3c[nH]c4ccccc34)NC2=O)C(=O)N[C@@H](Cc2c[nH]c3ccccc23)CC(=O)N[C@@H](Cc2ccc3ccccc3c2)C(=O)NC(C)(C)C(=O)N1 [Compound 45, [4-Aminomethyl-phenylacetyl](1c)*AE(2c)WQ[Dab](2c)[beta-hTrp][2-Nal][Aib]E(1c)[Dab][3-(3-Pyridyl)-Ala]-[NHMe]] | 104 | 4.2 | – | – | –
[4‑Aminomethyl‑phenylacetyl]SEWQ[Dab][AEF][2Nal][αMeL]E[dGly‑CF3][3Pal]-NH2 (lactam (positions not given here); lactam 3-6; not fully specified (bridges)) [Compound 16] | – | – | – | 97 | hIL-23 (pSTAT3) antagonist IC50 [1]: 1.4 nM
H-DCSCWQCWWLCR-NH2 (bridge 4-7, 2-11; not fully specified (bridges)) [I3 (isomer 3)] | – | – | – | 100 | –
